According to patent US20240109912A1, “TRICYCLIC PYRIMIDINES AS CYCLIN-DEPENDENT KINASE 7 (CDK7) INHIBITORS” (JANSSEN PHARMACEUTICA NV, priority 2020, published 2024):
Values joined by “and” are separate entries in the source; they are usually repeats but may differ in a detail not shown here. Equal values may be shown once. Read-outs that look alike come from different tables or passages of the source.

How the values were obtained:
[1] = target: CDK7/cyclinH/MAT1 trimeric complex (Homo sapiens (Human), UniProt P50613); assay: In vitro CDK7 assay, potency of irreversible covalent inhibitors (kinact/KI)
Sequence of CDK7/cyclinH/MAT1 trimeric complex (P50613 whole entry): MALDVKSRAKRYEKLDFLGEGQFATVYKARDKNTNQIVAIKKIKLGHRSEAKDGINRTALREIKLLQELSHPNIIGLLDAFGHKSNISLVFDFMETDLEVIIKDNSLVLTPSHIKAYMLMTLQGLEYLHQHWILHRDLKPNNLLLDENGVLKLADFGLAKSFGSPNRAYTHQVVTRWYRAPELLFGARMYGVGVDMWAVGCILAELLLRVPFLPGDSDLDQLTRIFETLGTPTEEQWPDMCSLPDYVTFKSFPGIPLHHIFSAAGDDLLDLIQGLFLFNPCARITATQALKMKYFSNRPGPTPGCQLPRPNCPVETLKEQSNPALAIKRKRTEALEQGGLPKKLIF
Sequence of CDK7/cyclinH/MAT1 trimeric complex (P51946 whole entry partner): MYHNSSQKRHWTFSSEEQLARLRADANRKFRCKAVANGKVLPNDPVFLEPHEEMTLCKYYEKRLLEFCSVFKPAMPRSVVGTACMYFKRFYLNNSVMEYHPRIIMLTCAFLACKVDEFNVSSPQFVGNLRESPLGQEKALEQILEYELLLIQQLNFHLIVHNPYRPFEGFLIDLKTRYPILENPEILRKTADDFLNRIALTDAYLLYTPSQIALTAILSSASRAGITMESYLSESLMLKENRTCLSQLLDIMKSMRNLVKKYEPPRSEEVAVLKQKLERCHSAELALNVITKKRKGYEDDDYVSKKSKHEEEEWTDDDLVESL
Sequence of CDK7/cyclinH/MAT1 trimeric complex (P51948 whole entry partner): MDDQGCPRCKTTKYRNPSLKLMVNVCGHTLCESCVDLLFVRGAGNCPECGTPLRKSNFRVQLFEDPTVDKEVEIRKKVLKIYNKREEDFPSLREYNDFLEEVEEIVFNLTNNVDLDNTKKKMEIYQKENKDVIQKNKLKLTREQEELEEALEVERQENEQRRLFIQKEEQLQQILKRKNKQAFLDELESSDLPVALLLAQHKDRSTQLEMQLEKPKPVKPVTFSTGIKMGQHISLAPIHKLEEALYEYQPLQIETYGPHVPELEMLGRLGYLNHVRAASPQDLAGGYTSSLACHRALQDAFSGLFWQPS

[2] = system: RNA polymerase II Serine 5 phosphorylation in A549 cells overexpressing CDK7 mutant (C312S); assay: Imaging-based cellular RNA PolII Ser5 phosphorylation assay in A549 cells overexpressing CDK7-mutant (C312S); format: cell-based, human; conditions: for IC50: Homo sapiens, A549, A549 cells overexpressing CDK7 mutant (C312S), read-out: CDK7_ A549 mutant hCDK7(pIC50) (converted); for CDK7_ A549 mutant hCDK7(pIC50): A549 cells overexpressing CDK7 mutant (C312S)
Procedure, shortened: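 A stably transduced A549 pool overexpressing CDK7 C312S, a mutant that blocks covalent binding at Cys312, while retaining endogenous wild-type CDK7 was used. Ser5 phosphorylation was measured by imaging, and IC50 values were derived.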

[3] = system: RNA polymerase II Serine 5 phosphorylation (CDK7) in A549 cells
[4] = read-out: CDK7 (20 nM enz.) (kobs/[I], M^−1*s^−1), 20 nM enz.
[5] = CDK7 (20 nM enz.) (KI, μM), 20 nM enz.
[6] = read-out: CDK7 (20 nM enz.) (kinact, s^−1), 20 nM enz.
[7] = read-out: CDK7 (20 nM enz.) (kinact/ KI, M^−1*s^−1), 20 nM enz.
[8] = read-out: CDK7 (kinact, s^−1), Table B
[9] = read-out: CDK7 (kinact/KI, M^−1*s^−1), Table B

Row | Compound | kinact/KI [1, 4] | IC50 [2] | IC50 [3] | CDK7 (20 nM enz.) (kinact, s^−1) ([1]; 20 nM enz.) | CDK7 (20 nM enz.) (kinact/ KI, M^−1*s^−1) ([1]; 20 nM enz.) | Ki [1, 5] | CDK7_ A549 mutant hCDK7(pIC50) [2] | kinact [1, 6] | kinact/KI [1, 7] | Ki ([1]; CDK7 (KI(μM)), Table B) | kinact [1, 8] | kinact/KI [1, 9]
1 | C=CC(=O)N1CCC(N2CCC(c3cc(C)c4c(c3)Nc3ncnc(N5CCS(=N)(=O)CC5)c3CO4)CC2)C1 (stereo not shown) [compound 104] | 1140 M⁻¹ s⁻¹ | > 10000 nM | 50.1 nM | – | – | – | – | – | – | – | – | –
2 | C=CC(=O)N1CCC(N2CC(c3cc(C)c4c(c3)Nc3ncnc(N5CCOCC5)c3CO4)C2)C(F)C1 (stereo not shown) [compound 29] | – | – | 1120 nM | 7.3e-05 s⁻¹ | 93.6387 M⁻¹ s⁻¹ | 0.78 µM | <5 | – | – | – | – | –
3 | C=CC(=O)N1CCC(N2CC(c3cc(F)c4c(c3)Nc3ncnc(N5CCOCC5)c3[C@H](C)O4)C2)CC1 [compound 26] | – | > 10000 nM | 288 nM | – | – | 0.336 µM | – | 4.84e-05 s⁻¹ | 203 M⁻¹ s⁻¹ | – | – | –
4 | C=CC(=O)N1CC[C@@H](N2CCC(c3cc(C)c4c(c3)Nc3ncnc(N5CCOCC5)c3CO4)CC2)C1 [compound 13] | – | > 10000 nM | 275 nM and 234 nM | 8.3e-05 s⁻¹ | – | 0.0781 µM and 0.315 µM | – | 5.64e-05 s⁻¹ | – | – | – | –
5 | CC#CC(=O)N1CC(N2CCC(c3cc(C)c4c(c3)Nc3ncnc(N5CCS(=O)(=O)CC5)c3[C@H](C)O4)CC2)C1 (single isomer, unassigned) [compound 150] | – | > 10000 nM | 316 nM and 457 nM | 4.7e-05 s⁻¹ | 261.659 M⁻¹ s⁻¹ | 0.283 µM and 0.18 µM | – | 6.55e-05 s⁻¹ | 231 M⁻¹ s⁻¹ | – | – | –
6 | C=CC(=O)N1CCC(N2CC(c3cc(C)c4c(c3)Nc3ncnc(N5CCS(=N)(=O)CC5)c3CO4)C2)CC1 [compound 105] | – | > 10000 nM | 282 nM | – | – | 0.121 µM | – | 3.13e-05 s⁻¹ | 259 M⁻¹ s⁻¹ | – | – | –
7 | C=CC(=O)N1CC(N2CCC(c3cc(C)c4c(c3)Nc3ncnc(N5CCC(C#N)CC5)c3CO4)CC2)C1 [compound 69] | – | > 10000 nM | 1580 nM | – | – | 1.1 µM | – | 6.3e-05 s⁻¹ | 57.2 M⁻¹ s⁻¹ | – | – | –
8 | C=CC(=O)N1CC[C@H](N2CC(c3cc(F)c4c(c3)Nc3ncnc(N5CCOCC5)c3CO4)C2)C1 (single isomer, unassigned) [compound 54] | – | > 10000 nM | 1050 nM | – | – | 1.36 µM | – | 7.77e-05 s⁻¹ | 57.2 M⁻¹ s⁻¹ | – | – | –
9 | C=CC(=O)N1CC[C@H](N2CC(c3cc(C)c4c(c3)Nc3ncnc(N5CCS(=O)(=O)CC5)c3[C@H](C)O4)C2)C1 (single isomer, unassigned) [compound 116] | – | > 10000 nM | 191 nM and 269 nM | 3.89e-05 s⁻¹ | 206.471 M⁻¹ s⁻¹ | 0.3 µM and 0.189 µM | <5 | 4.57e-05 s⁻¹ | 152 M⁻¹ s⁻¹ | – | – | –
10 | C=CC(=O)N1CC(N2CCN(c3ccc4c(c3)Nc3ncnc(N5CCOCC5)c3CO4)CC2)C1 [compound 6] | – | > 10000 nM | 3800 nM | – | – | – | – | – | – | 2.73 µM | 0.000504 s⁻¹ | 185 M⁻¹ s⁻¹
11 | C=CC(=O)N1CC(N2CCC(c3cc(C)c4c(c3)Nc3ncnc(N5CCC(CCO)C5)c3CO4)CC2)C1 (stereo not shown) [compound 113] | – | > 10000 nM | 9120 nM | – | – | – | – | 3.36e-06 s⁻¹ | – | – | – | –
12 | C#Cc1cc(C2CN([C@H]3CCN(C(=O)C=C)C3)C2)cc2c1O[C@H](C)c1c(ncnc1N1CCS(=O)(=O)CC1)N2 [compound 193] | – | > 10000 nM | 513 nM | – | – | 0.156 µM | – | 2.62e-05 s⁻¹ | 168 M⁻¹ s⁻¹ | – | – | –
13 | C=CC(=O)N1CC(N2CCC(c3cc(F)c4c(c3)Nc3ncnc(-c5cnn(C)c5)c3CO4)CC2)C1 [compound 21] | – | > 10000 nM | 832 nM | – | – | 0.408 µM | – | 5.42e-05 s⁻¹ | 133 M⁻¹ s⁻¹ | – | – | –
14 | C#Cc1cc(C2CCN(C3CN(C(=O)C#CC)C3)CC2)cc2c1O[C@@H](C)c1c(ncnc1N1CCS(=O)(=O)CC1)N2 [compound 191] | – | > 10000 nM | 191 nM | – | – | 0.1 µM | – | 8.29e-05 s⁻¹ | 809 M⁻¹ s⁻¹ | – | – | –
15 | C=CC(=O)N1CCC(N2CC(c3cc(C)c4c(c3)Nc3ncnc(N5CCOCC5)c3CO4)C2)C(F)C1 (stereo not shown) [compound 28] | – | > 10000 nM | 759 nM | – | – | 0.686 µM | – | 8.88e-05 s⁻¹ | 129 M⁻¹ s⁻¹ | – | – | –
16 | C#Cc1cc(C2CCN(C3CN(C(=O)C=C)C3)CC2)cc2c1O[C@H](C)c1c(ncnc1N1CCS(=O)(=O)CC1)N2 (single isomer, unassigned) [compound 189] | – | > 10000 nM | 195 nM and 200 nM | – | – | 0.0806 µM | – | 8.1e-05 s⁻¹ | 879 M⁻¹ s⁻¹ | – | – | –
17 | C=CC(=O)N1CC(N2CC(c3cc(C)c4c(c3)Nc3ncnc(N5CCS(=N)(=O)CC5)c3CO4)C2)C1 [compound 110] | – | > 10000 nM | 813 nM | – | – | 0.0322 µM | – | 4.3e-05 s⁻¹ | 1330 M⁻¹ s⁻¹ | – | – | –
18 | C#Cc1cc(C2CCN(C3CN(C(=O)C=C)C3)CC2)cc2c1O[C@@H](C)c1c(ncnc1N1CCS(=O)(=O)CC1)N2 [compound 190] | 839 M⁻¹ s⁻¹ | > 10000 nM | ~50.1 nM and ~40.7 nM | – | – | – | – | – | – | – | – | –
19 | C=CC(=O)N1CC(N2CC[C@H](c3cc(C)c4c(c3)Nc3ncnc(N5CCOCC5)c3CO4)C2)C1 [compound 23] | – | > 10000 nM | 603 nM | – | – | 0.255 µM | – | 5.86e-05 s⁻¹ | 230 M⁻¹ s⁻¹ | – | – | –
20 | C=CC(=O)N1CC(N2CCC(c3ccc4c(c3)Nc3ncnc(C5CCOCC5)c3CO4)CC2)C1 [compound 38] | – | > 10000 nM | 1150 nM | – | – | – | – | – | – | 0.251 µM | 9.7e-05 s⁻¹ | 386 M⁻¹ s⁻¹
21 | C=CC(=O)N1CC[C@@H](N2CC(c3cc(C)c4c(c3)Nc3ncnc(N5CCS(=O)(=O)CC5)c3[C@H](C)O4)C2)C1 (single isomer, unassigned) [compound 118] | – | > 10000 nM | 204 nM and 339 nM | 5.02e-05 s⁻¹ | 179.017 M⁻¹ s⁻¹ | 0.28 µM and 0.281 µM | <5 | 4.2e-05 s⁻¹ | 150 M⁻¹ s⁻¹ | – | – | –
22 | C=CC(=O)N1CC(N2CCC(c3ccc4c(c3)Nc3ncnc(-c5ccc(=O)n(C)c5)c3CO4)CC2)C1 [compound 8] | – | > 10000 nM | 5500 nM | – | – | – | – | – | – | 0.251 µM | 0.000188 s⁻¹ | 749 M⁻¹ s⁻¹
23 | C=CC(=O)N1CC(N2CCC(c3cc(C)c4c(c3)Nc3ncnc(-c5cn(C)nc5C)c3CO4)CC2)C1 [compound 81] | – | > 10000 nM | 363 nM | – | – | 0.31 µM | – | 4.82e-05 s⁻¹ | 156 M⁻¹ s⁻¹ | – | – | –
24 | C=CC(=O)N1CCC(N2CCC(c3cc(C)c4c(c3)Nc3ncnc(N5CCOCC5)c3CO4)CC2)C1 (stereo not shown) [compound 11] | – | 8910 nM | 288 nM | – | – | 0.0411 µM | – | 3.59e-05 s⁻¹ | 874 M⁻¹ s⁻¹ | – | – | –
25 | C=CC(=O)N1CC[C@H](N2CCC(c3cc(C)c4c(c3)Nc3ncnc(N5CCOCC5)c3CO4)CC2)C1 [compound 12] | – | > 10000 nM | 457 nM and 282 nM | 0.0001275 s⁻¹ | 256.184 M⁻¹ s⁻¹ | 0.191 µM and 0.498 µM | – | 7.04e-05 s⁻¹ | 368 M⁻¹ s⁻¹ | – | – | –
26 | C=CC(=O)N1CC[C@@H](N2CC(c3cc4c(c(C)n3)OCc3c(ncnc3N3CCS(=O)(=O)CC3)N4)C2)C1 (single isomer, unassigned) [compound 79] | – | > 10000 nM | 4570 nM | – | – | 0.189 µM | – | 3.93e-05 s⁻¹ | 209 M⁻¹ s⁻¹ | – | – | –
27 | C#Cc1cc(C2CN([C@H]3CCN(C(=O)C=C)C3)C2)cc2c1O[C@@H](C)c1c(ncnc1N1CCS(=O)(=O)CC1)N2 [compound 194] | – | > 10000 nM | 158 nM | – | – | 0.0177 µM | – | 2.42e-05 s⁻¹ | 1370 M⁻¹ s⁻¹ | – | – | –
